# Data published in patent US20200131142A1, “FARNESOID X RECEPTOR AGONISTS AND USES THEREOF” (Metacrine, Inc., priority 2017, published 2020).
# Target: T1, hFXR (Homo sapiens, UniProt Q96RI1)
# T1 construct: expressed in transfected cells; host or cells: CV-1 cells
# T1 sequence (Q96RI1 1-486): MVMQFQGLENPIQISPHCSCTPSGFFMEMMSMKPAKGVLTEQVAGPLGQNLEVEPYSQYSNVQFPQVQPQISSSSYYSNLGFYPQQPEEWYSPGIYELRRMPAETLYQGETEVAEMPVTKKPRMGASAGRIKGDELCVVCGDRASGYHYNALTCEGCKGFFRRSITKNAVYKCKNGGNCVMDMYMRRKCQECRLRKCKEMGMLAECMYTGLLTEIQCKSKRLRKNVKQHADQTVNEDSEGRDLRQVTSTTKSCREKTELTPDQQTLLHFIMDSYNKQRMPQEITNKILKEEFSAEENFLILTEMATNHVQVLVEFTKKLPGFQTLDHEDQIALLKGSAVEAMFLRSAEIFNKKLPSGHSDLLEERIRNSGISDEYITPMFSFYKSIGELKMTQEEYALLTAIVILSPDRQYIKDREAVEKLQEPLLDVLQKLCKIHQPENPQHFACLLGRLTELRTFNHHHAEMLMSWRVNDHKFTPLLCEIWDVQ
# T1 sequence (P19793 1-462 partner): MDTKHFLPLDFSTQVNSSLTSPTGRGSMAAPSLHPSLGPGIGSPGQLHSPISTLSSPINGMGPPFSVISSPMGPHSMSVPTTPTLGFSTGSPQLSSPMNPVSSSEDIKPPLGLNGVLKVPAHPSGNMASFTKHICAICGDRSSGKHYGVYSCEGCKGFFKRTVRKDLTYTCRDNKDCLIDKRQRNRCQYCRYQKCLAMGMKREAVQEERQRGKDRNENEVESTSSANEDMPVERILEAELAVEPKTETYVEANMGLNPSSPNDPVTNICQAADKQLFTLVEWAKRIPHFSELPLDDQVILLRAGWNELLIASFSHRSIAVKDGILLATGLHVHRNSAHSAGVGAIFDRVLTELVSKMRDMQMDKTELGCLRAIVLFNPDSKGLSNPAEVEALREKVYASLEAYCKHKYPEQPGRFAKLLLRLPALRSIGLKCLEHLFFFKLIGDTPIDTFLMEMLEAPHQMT
# Experiment: In Vitro FXR Assay (TK): hFXR/hRXR TK-ECRE-luc reporter in transfected CV-1 cells
# Type: cell-based
# Conditions: 18 hrs incubation, luminescence, compounds with maximum efficacy <25% of the Fexarmine control classified as '+'
# Procedure: Example B-1: In Vitro FXR Assay (TK)
# CV-1 cells were seeded at a density of 2,000,000 cells in a T175 flask with DMEM+10% charcoal double-stripped FBS and incubated at 37° C. in 5% CO2 for 18 h (O/N).
# After 18 h of incubation, the medium in the T175 flask was changed with fresh DMEM+10% charcoal super-stripped serum. In a polypropylene tube, 2500 μL OptiMEM (Life Technologies, Cat #31985-062) was combined with expression plasmids for hFXR, hRXR, TK-ECRE-luc and pCMX-YFP. The tube was then briefly vortexed and incubated at room temperature for 5 minutes. Transfection reagent (X-tremeGENE HP from Roche, Cat #06 366 236 001) was added to the OptiMEM/plasmid mixture vortexed and incubated at room temperature for 20 minutes. Following incubation, the transfection reagent/DNA mixture complex was added to cells in the T175 flask and the cells were incubated at 37° C. in 5% CO2 for 18 h (O/N).
# Compounds were serially diluted in DMSO and added to transfected CV-1 cells. The cells were then incubated for 18 hrs. The next day cells were lysed and examined for luminescence.
row,Structure (SMILES),EC50 [nM]
1,"COc1ncc(-c2cccc(N(C[C@H]3CC[C@H](c4ccc(OC)c(C)c4)CC3)C(=O)[C@H]3CC[C@H](O)CC3)c2)s1 [Compound 1, trans-4-Hydroxy-N-((trans-4-(4-methoxy-3-methylphenyl)cyclohexyl)methyl)-N-(3-(2-methoxythiazol-5-yl)phenyl)cyclohexanecarboxamide]",≤ 250
2,"COc1ncc(-c2cccc(N(C[C@H]3CC[C@H](c4ccc(OC)c(C)c4)CC3)C(=O)C3CCCCC3)c2)s1 [Compound 1.01, N-((trans-4-(4-Methoxy-3-methylphenyl)cyclohexyl)methyl)-N-(3-(2-methoxythiazol-5-yl)phenyl)cyclohexanecarboxamide]",≤ 250
3,"COc1ncc(-c2cccc(N(C[C@H]3CC[C@@H](c4ccc(OC)c(C)c4)CC3)C(=O)[C@H]3CC[C@H](O)CC3)c2)s1 [Compound 2, trans-4-Hydroxy-N-((cis-4-(4-methoxy-3-methylphenyl)cyclohexyl)methyl)-N-(3-(2-methoxythiazol-5-yl)phenyl)cyclohexanecarboxamide]",≥ 1000
4,"CCO[C@H]1CC[C@H](C(=O)N(C[C@H]2CC[C@H](c3ccc(OC)c(C)c3)CC2)c2cccc(-c3cnc(OC)s3)c2)CC1 [Compound 4, trans-4-Ethoxy-N-((trans-4-(4-methoxy-3-methylphenyl)cyclohexyl)methyl)-N-(3-(2-methoxythiazol-5-yl)phenyl)cyclohexanecarboxamide]",250 to 1000
5,"COc1ncc(-c2ccnc(N(C[C@H]3CC[C@H](c4ccc(OC)c(C)c4)CC3)C(=O)[C@H]3CC[C@H](O)CC3)c2)s1 [Compound 6.01, trans-4-Hydroxy-N-((trans-4-(4-methoxy-3-methylphenyl)cyclohexyl)methyl)-N-(4-(2-methoxythiazol-5-yl)pyridin-2-yl)cyclohexanecarboxamide]",≤ 250
6,"COc1ccc([C@H]2CC[C@H](CN(c3cc(-c4cnc(C5CC5)s4)ccn3)C(=O)[C@H]3CC[C@H](O)CC3)CC2)cc1C [Compound 6.04, trans-N-(4-(2-cyclopropylthiazol-5-yl)pyridin-2-yl)-4-hydroxy-N-((trans-4-(4-methoxy-3-methylphenyl)cyclohexyl)methyl) cyclohexanecarboxamide]",≤ 250
7,"COc1ccc(C23CCC(CN(c4cc(-c5cnc(C6CC6)s5)ccn4)C(=O)[C@H]4CC[C@H](O)CC4)(CC2)CC3)cc1C [Compound 6.05, trans-N-(4-(2-Cyclopropylthiazol-5-yl)pyridin-2-yl)-4-hydroxy-N-((4-(4-methoxy-3-methylphenyl)bicyclo[2.2.2]octan-1-yl)methyl)cyclohexanecarboxamide]",≤ 250
8,"COc1ccc([C@H]2CC[C@H](CN(c3cccc(CCc4nccs4)c3)C(=O)[C@H]3CC[C@H](O)CC3)CC2)cc1C [Compound 6.07, trans-4-Hydroxy-N-((trans-4-(4-methoxy-3-methylphenyl)cyclohexyl)methyl)-N-(3-(2-(thiazol-2-yl)ethyl)phenyl)cyclohexanecarboxamide]",≤ 250
9,"COc1ccc([C@H]2CC[C@H](CN(c3cccc(-c4cnc(C5CC5)s4)c3)C(=O)[C@H]3CC[C@H](O)CC3)CC2)cc1C [Compound 7, trans-N-(3-(2-Cyclopropylthiazol-5-yl)phenyl)-4-hydroxy-N-((trans-4-(4-methoxy-3-methylphenyl)cyclohexyl)methyl) cyclohexanecarboxamide]",≤ 250
10,"COc1ccc([C@H]2CC[C@H](CN(c3cccc(-c4csc(C)n4)c3)C(=O)[C@H]3CC[C@H](O)CC3)CC2)cc1C [Compound 7.02, trans-4-Hydroxy-N-((trans-4-(4-methoxy-3-methylphenyl)cyclohexyl)methyl)-N-(3-(2-methylthiazol-4-yl)phenyl)cyclohexanecarboxamide]",250 to 1000
11,"COc1ccc([C@H]2CC[C@H](CN(c3cccc(-c4ncc(C)s4)c3)C(=O)[C@H]3CC[C@H](O)CC3)CC2)cc1C [Compound 7.03, trans-4-Hydroxy-N-((trans-4-(4-methoxy-3-metthylphenyl)cyclohexyl)methyl)-N-(3-(5-methylthiazol-2-yl)phenyl)cyclohexanecarboxamide]",≥ 1000
12,"COc1ccc([C@H]2CC[C@H](CN(c3cccc(-c4sc(C)nc4C)c3)C(=O)[C@H]3CC[C@H](O)CC3)CC2)cc1C [Compound 7.04, trans-N-(3-(2,4-Dimethylthiazol-5-yl)phenyl)-4-hydroxy-N-((trans-4-(4-methoxy-3-methylphenyl)cyclohexyl)methyl) cyclohexanecarboxamide]",≥ 1000
13,"CCc1ncc(-c2cccc(N(C[C@H]3CC[C@H](c4ccc(OC)c(C)c4)CC3)C(=O)[C@H]3CC[C@H](O)CC3)c2)s1 [Compound 7.05, trans-N-(3-(2-Ethylthiazol-5-yl)phenyl)-4-hydroxy-N-((trans-4-(4-methoxy-3-methylphenyl)cyclohexyl)methyl) cyclohexanecarboxamide]",≤ 250
14,COc1ccc([C@H]2CC[C@H](CN(c3cccc(-c4cnc(C(C)C)s4)c3)C(=O)[C@H]3CC[C@H](O)CC3)CC2)cc1C [Compound 7.06],≤ 250
15,"COc1ccc([C@H]2CC[C@H](CN(c3cccc(-c4cnc(C(C)(C)C)s4)c3)C(=O)[C@H]3CC[C@H](O)CC3)CC2)cc1C [Compound 7.07, trans-N-(3-(2-(tert-Butyl)thiazol-5-yl)phenyl)-4-hydroxy-N-((trans-4-(4-methoxy-3-methylphenyl)cyclohexyl)methyl) cyclohexanecarboxamide]",≤ 250

# Next, values leading:
row,EC50 [nM],Structure (SMILES)
1,250 to 1000,"COc1ccc([C@H]2CC[C@H](CN(c3cccc(-c4cnc(O)s4)c3)C(=O)[C@H]3CC[C@H](O)CC3)CC2)cc1C [Compound 3, trans-4-Hydroxy-N-(3-(2-hydroxythiazol-5-yl)phenyl)-N-((trans-4-(4-methoxy-3-methylphenyl)cyclohexyl)methyl) cyclohexanecarboxamide]"
2,≤ 250,"COc1ncc(-c2cccc(N(C[C@H]3CC[C@H](c4ccc(OC)c(C)c4)CC3)C(=O)[C@H]3CC[C@@H](O)CC3)c2)s1 [Compound 5, cis-4-Hydroxy-N-((trans-4-(4-methoxy-3-methylphenyl)cyclohexyl)methyl)-N-(3-(2-methoxythiazol-5-yl)phenyl)cyclohexanecarboxamide]"
3,≤ 250,"COc1ccc([C@H]2CC[C@H](CN(c3cccc(-c4cnc(N5CCCC5)s4)c3)C(=O)[C@H]3CC[C@H](O)CC3)CC2)cc1C [Compound 6, trans-4-Hydroxy-N-((trans-4-(4-methoxy-3-methylphenyl)cyclohexyl)methyl)-N-(3-(2-(pyrrolidin-1-yl)thiazol-5-yl)phenyl)cyclohexanecarboxamide]"
4,250 to 1000,"COc1ccc([C@H]2CC[C@H](CN(c3cccc(-c4cncs4)c3)C(=O)[C@H]3CC[C@H](O)CC3)CC2)cc1C [Compound 6.02, trans-4-Hydroxy-N-((trans-4-(4-methoxy-3-methylphenyl)cyclohexyl)methyl)-N-(3-(thiazol-5-yl)phenyl)cyclohexanecarboxamide]"
5,≤ 250,"COc1ccc([C@H]2CC[C@H](CN(c3cccc(-c4cnc(C)s4)c3)C(=O)[C@H]3CC[C@H](O)CC3)CC2)cc1C [Compound 6.03, trans-4-Hydroxy-N-((trans-4-(4-methoxy-3-methylphenyl)cyclohexyl)methyl)-N-(3-(2-methylthiazol-5-yl)phenyl)cyclohexanecarboxamide]"
6,≤ 250,"COc1ccc([C@H]2CC[C@H](CN(c3cccc(/C=C/c4nccs4)c3)C(=O)[C@H]3CC[C@H](O)CC3)CC2)cc1C [Compound 6.06, trasn-4-Hydroxy-N-((trans-4-(4-methoxy-3-methylphenyl)cyclohexyl)methyl)-N-(3-((E)-2-(thiazol-2-yl)vinyl)phenyl)cyclohexanecarboxamide]"
7,≥ 1000,"COc1ccc([C@H]2CC[C@H](CN(c3cccc(-c4nc(C)cs4)c3)C(=O)[C@H]3CC[C@H](O)CC3)CC2)cc1C [Compound 7.01, trans-4-Hydroxy-N-((trans-4-(4-methoxy-3-methylphenyl)cyclohexyl)methyl)-N-(3-(4-methylthiazol-2-yl)phenyl)cyclohexanecarboxamide]"
